Data on one compound can be found in patent US20240165282A1, “CONFORMATIONAL CONSTRAINED SOMATOSTATIN RECEPTOR 3 PEPTIDE LIGANDS AND THEIR CONJUGATES AND USES THEREOF” (STARGET PHARMA LTD., priority 2021, published 2024).

The target in the assay is SSTR5 (Homo sapiens, UniProt P35346). The assay is described as follows: Radioligand binding, displacement of 125I-Tyr11-SRIF-14. Set-up: host or cells: Chem-1 (Rat ChemiSCREEN) cells, membrane preparation. The method in brief:
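Assays ran at 25 °C in 25 mM HEPES pH 7.4 with 5 mM MgCl2, 1 mM CaCl2, 0.1% BSA and 1% DMSO. Filter-bound radioactivity gave IC50 by nonlinear least-squares regression.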
In general terms: Displacement assays read how much labelled ligand stays bound in the presence of the test substance.

*1 amine or outer side, *2 acyl side, *3 side chain or, on linkers, in order; H or OH if unused. Where a SMILES comes first, the peptide text is derived from it. Bridges are numbered along the chain shown (N, C = ends). [ ]: non-standard residue; d: D form. The star is where a group is joined. DOTA = O=C(O)CN1CCN(CC(=O)O)CCN(CC(=O)*)CCN(CC(=O)O)CC1; N(2-mercaptoethyl)Gly = O=C(CN(CCS[*:3])[*:1])[*:2] Bounds are passed on as bounds.

Sequence of SSTR5 (P35346 whole entry): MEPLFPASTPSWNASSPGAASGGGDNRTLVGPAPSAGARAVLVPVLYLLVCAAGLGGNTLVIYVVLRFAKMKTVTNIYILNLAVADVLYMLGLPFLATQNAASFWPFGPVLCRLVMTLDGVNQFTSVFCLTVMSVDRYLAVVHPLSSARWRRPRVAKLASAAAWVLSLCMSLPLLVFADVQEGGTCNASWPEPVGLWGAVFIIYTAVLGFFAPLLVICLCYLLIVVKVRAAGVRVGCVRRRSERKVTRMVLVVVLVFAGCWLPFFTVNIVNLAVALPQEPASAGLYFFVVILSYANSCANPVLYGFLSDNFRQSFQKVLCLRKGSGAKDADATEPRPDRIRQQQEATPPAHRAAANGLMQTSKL

For orientation: IC50 means the concentration that gives 50% inhibition. The low end stands for greater potency, the high end for weaker potency. Broadly, the Ki is a measure of affinity in units of concentration, obtained from inhibition or displacement. Read a low Ki as tighter binding. For the compound `C[C@@H](O)[C@@H]1NC(=O)[C@H](CCCCN)NC(=O)[C@@H](Cc2c[nH]c3ccccc23)NC(=O)[C@H](Cc2ccccc2)NC(=O)[C@@H](NC(=O)[C@H](CCCNC(=N)N)NC(=O)[C@@H](Cc2ccccc2)NC(=O)CN2CCN(CC(=O)O)CCN(CC(=O)O)CCN(CC(=O)O)CC2)CSSCCN(CC(N)=O)C(=O)[C@H](Cc2ccccc2)NC1=O` [SEQ ID NO: 3, DOTA-D-Phe^1-Arg^2-Cys^3-Phe^4-D-Trp^5-Lys^6-Thr^7-Phe^8-NTEG^9-NH2 cyclo 3-9] ({DOTA}-[dF]RCF[dW]KTF[N(2-mercaptoethyl)Gly]-NH2; disulfide 3-9), the IC50 was over 1000 nM and the Ki was 660 nM. Besides, the “Hill coefficient (nH)” value (hSSTR-5) is 1.57.
